Converted amounts (≈) assume the structure as drawn. Peptide text beside a SMILES is read from it. * marks the point of attachment. Orn(α-tetramethylguanidino) = CN(C)C(=N[C@@H](CCCN)C(=O)*)N(C)C
Experiments:
[1] = tested on: 70S ribosome, ribosomal binding site of Api805; assay: Fluorescence polarization competition with cf-Api805; set-up: species or system Escherichia coli; conditions: Figure S2, twice in triplicate
Procedure: Ki was determined for ribosome extracts using cf-labeled and unlabeled peptides in ribosome preparation buffer. Black 384-well plates were prepared as described above. Unlabeled peptides or antibiotics (20 μL, 656 μmol/L) were added and 2-fold serially diluted in 23 wells in ribosome preparation buffer. […] The fluorescence polarization was measured on a […] microplate reader in the top read position (λexc = 485 nm, λem = 535 nm) in triplicate on at least two different days. […] Inhibition constants, Ki, were calculated as described by Mathias and Jung. page 9: 140 140 120 120 100 100 80 80 60 60 40 40 […]. […]. […] 0 0 -20 -20 10 -2 1 10 2 10 4 10 6 10 -2 1 10 2 10 4 10 6 Pept ide Concent r at ion [ nM] Pept ide Concent r at ion [ nM] 140 140 120 120 100 100 80 80 60 60 40 40 20 Chlor […] ol vs. […] -20 -20 10 -2 1 10 2 10 4 10 6 10 -2 1 10 2 10 4 10 6 Ant ibiot ic Concent r at ion [ nM] Antibiotic Concentration [nM] 140 120 100 80 60 40 […] -20 10 -2 1 10 2 10 4 10 6 Ant ibiot ic Concent r at ion [ nM] Figure S2. […] tested as control in competition with Api137 or erythromycin. Experiments were done twice in triplicates. Error bars show the standard deviation of all six replicates. The horizontal dotted line separates positive and negative ranges on the Y-axis. - S9 - (also on this page, place not known: […]

[2] = tested on: in vitro protein translation (GFP expression); assay: In vitro translation assay (GFP fluorescence, PureExpress Delta RF123 kit); format: biochemical, Escherichia coli
Procedure: Next, we investigated whether Api805 inhibits protein translation in vitro by recording the fluorescence of expressed GFP (Figure 2). As Api137 inhibits protein translation by trapping release factors RF1 and RF2, the fluorescence was measured in the absence of release factor and in the presence of RF1 or RF2. We used a ribosome concentration of 2.4 µmol/L, which is ~[…] than the ribosome concentration in E. coli. […] Furthermore, RF2 of PureExpress® was isolated from an E. coli K-12 strain that carries an A246T substitution, reducing its susceptibility to apidaecin [15, 23]. The inhibition was measured for peptide concentrations of 0.05, 5, and 50 µmol/L relative to the fluorescence obtained without a PrAMP (100%).
GFP was expressed using an NEB PureExpress Delta RF123 kit (New England Biolabs, Ipswich, MA, USA). The sfGFP DNA template coding for a UAA stop codon was amplified from the pY71sfGFP plasmid by PCR using sfGFP primers (Table S3). Release factor 1 (RF1) included in the kit was 50-fold diluted (v/v) in freshly prepared 1x pure system buffer (PSB, 1 mol/L magnesium acetate, 0.5 mol/L K3PO4 (pH 7.3), 1 mol/L potassium glutamate, 1 mol/L NH4Cl, 0.5 mol/L CaCl2, 1 mol/L spermidine, 0.1 mol/L putrescine, 0.1 mol/L DTT). GFP was expressed in a freshly prepared mixture of kit solution A (2 µL), kit solution B (1.5 µL), 50-fold diluted RF1 (0.5 µL), sfGFP template (0.1325 pmol, 35 ng) or water as control (0.25 µL), PSB (0.25 µL), and PrAMP (50, 5, 0.05 or 0 µmol/L) dissolved in water (0.5 µL). The reaction mixture was transferred into a black 384-well plate (flat bottom, Greiner Bio-One GmbH), covered with a lid, and incubated in a microplate reader (Gemini EM, Molecular Devices) at 37 °C for two hours. The fluorescence was recorded every 10 min (λexc = 485 nm, λem = 535 nm).

[3] = tested on: E. coli BL21 (DE3) sbmA::Tn10^Cm; format: cell-based, Escherichia coli
Procedure: The minimal inhibitory concentrations (MIC) were determined at least twice in triplicate using a liquid broth microdilution assay in sterile 96-well plates and a total volume of 100 μL per well. Aqueous peptide solutions were serially 2-fold diluted in 25% MHBII or 33% TSB medium in a volume of 50 µL. An overnight culture was diluted in 25% MHBII or 33% TSB medium to 1.5 × 10^7 CFU/mL, and an aliquot of 50 μL was added to each well. The final cell count in each well was 7.5 × 10^6 CFU/mL. The plates were incubated at 37 °C for 20 ± 2 h. The turbidity of each well was measured at a wavelength of 600 nm. The MIC was defined as the lowest peptide concentration where the turbidity was identical to medium only.
E. coli strain BL21(DE3) was randomly mutagenized by Tn10 insertion using the lambda phage lysate λNK1324 carrying a chloramphenicol resistance and grown on LB agar plates in the presence of chloramphenicol (15 µg/mL) at 30 °C overnight. The resistant colonies were transferred to 25% MHBII agar plates containing Api137 (32 or 64 µg/mL) and incubated again at 37 °C overnight. Genomic DNA was isolated by a Monarch® Genomic DNA purification kit (New England Biolabs, Frankfurt am Main, Germany) from the presumed double-resistant strains, and the sequences flanking the transposon insertion were determined by arbitrary primed PCR using arbitrary primer ARB6 and Tn10 transposon-specific primer IS10-R complementary to the IS10 element of Tn10 transposon. The first round of amplification included six cycles of denaturation (95 °C, 30 s), annealing (30 °C, 30 s), and extension (72 °C, 90 s), followed by 30 cycles of denaturation (95 °C, 30 s), annealing (45°C, 30 s), and extension (72 °C, 2 min), as well as a final extension (72 °C, 6 min). The second round of amplification used arbitrary primer ARB2 and primer IS10-R. The PCR consisted of 30 cycles of denaturation (95 °C, 30 s), annealing (52 °C, 30 s), and extension (72 °C, 2 min), followed by a final extension step (72 °C, 6 min). PCR products were purified with the NucleoSpin® Gel and a PCR cleanup kit (Macherey-Nagel, Düren, Germany) and sequenced using primer IS10-R (Eurofins MWG Operon, Ebersberg, Germany), and the corresponding protein was identified in a sequence database (UniProt and NCBI, 2021).

[4] = tested on: E. coli BL21 (DE3) RIL ribosome extract; conditions: values published for E. coli BL21 (DE3) RIL ribosome extract; read-out: Kd (printed in column Ros); cited from earlier work
Description: Table 2 Antibacterial activities, dissociation (Kd), and inhibition constants (Ki) of ribosome binding obtained for all PrAMPs included in the current study for E. coli strains BW25113 (BW) and Rosetta DE3 pLysS (Ros). | column: Kd [µmol/L] ** / Ros

[5] = highest peptide concentration (50 µmol/L), relative to fluorescence without PrAMP, 37 °C, 2 h, twice in duplicate

| SMILES | inhibition of the binding of cf-labeled Api805 [1] | inhibition of protein translation in the absence of RF1 [2, 5] | inhibition of protein translation in the presence of RF1 [2, 5] | MIC in the E. coli BL21 sbmA::Tn10^Cm strain ([3]; medium not stated (Table 3: 25% MHBII and 33% TSB)) | Kd [4] | inhibition of protein translation in the absence of RF1, in words ([2]; GFP fluorescence, Figure 2) | MIC, 25% MHBII ([3]; BL21 (DE3) sbmA::Tn10^Cm, 25% MHBII containing IPTG (0.1 mmol/L)) | MIC, 33% TSB ([3]; BL21 (DE3) sbmA::Tn10^Cm, 33% TSB containing IPTG (0.1 mmol/L)) |
| --- | --- | --- | --- | --- | --- | --- | --- | --- |
| CC[C@H](C)[C@H](NC(=O)[C@@H]1CCCN1C(=O)[C@H](CCCNC(=N)N)NC(=O)[C@H](CC(N)=O)NC(=O)[C@H](CC(N)=O)NC(=O)CN)C(=O)N[C@@H](Cc1ccc(O)cc1)C(=O)N[C@H](C(=O)N1CCC[C@H]1C(=O)N[C@@H](CCCNC(=N)N)C(=O)N1CCC[C@H]1C(=O)N[C@@H](CCCNC(=N)N)C(=O)N1CCC[C@H]1C(=O)N1CCC[C@H]1C(=O)N[C@@H](Cc1c[nH]cn1)C(=O)N1CCC[C@H]1C(=O)N[C@@H](CCCNC(=N)N)C(=O)N1CCC[C@H]1C(=O)N[C@H](C(=O)N[C@@H](CCCNC(=N)N)C(=O)N[C@H](C(=O)O)C(C)C)[C@@H](C)CC)[C@@H](C)CC [Api805] (H-GNNRPIYIPRPRPPHPRPIRV-OH; N-terminus assumed) | did not inhibit | ~ 38% | ~ 52% | 128 µg/mL |  |  |  |  |
| CC[C@H](C)[C@H](NC(=O)[C@H](Cc1ccc(O)cc1)NC(=O)[C@@H](NC(=O)[C@@H]1CCCN1C(=O)[C@H](CCCNC(=N)N)NC(=O)[C@H](CC(N)=O)NC(=O)[C@H](CC(N)=O)NC(=O)[C@H](CCCN)N=C(N(C)C)N(C)C)C(C)C)C(=O)N1CCC[C@H]1C(=O)N[C@@H](CCCNC(=N)N)C(=O)N1CCC[C@H]1C(=O)N[C@@H](CCCNC(=N)N)C(=O)N1CCC[C@H]1C(=O)N1CCC[C@H]1C(=O)N[C@@H](Cc1c[nH]cn1)C(=O)N1CCC[C@H]1C(=O)N[C@@H](CCCNC(=N)N)C(=O)N[C@@H](CC(C)C)C(N)=O [Api88] ({Orn(α-tetramethylguanidino)}-NNRPVYIPRPRPPHPRL-NH2) |  |  |  |  | 1220 nM |  |  |  |
| CC[C@H](C)[C@H](NC(=O)[C@H](Cc1ccc(O)cc1)NC(=O)[C@@H](NC(=O)[C@@H]1CCCN1C(=O)[C@H](CCCNC(=N)N)NC(=O)[C@H](CC(N)=O)NC(=O)[C@H](CC(N)=O)NC(=O)[C@H](CCCN)N=C(N(C)C)N(C)C)C(C)C)C(=O)N1CCC[C@H]1C(=O)N[C@@H](CCCNC(=N)N)C(=O)N1CCC[C@H]1C(=O)N[C@@H](CCCNC(=N)N)C(=O)N1CCC[C@H]1C(=O)N1CCC[C@H]1C(=O)N[C@@H](Cc1c[nH]cn1)C(=O)N1CCC[C@H]1C(=O)N[C@@H](CCCNC(=N)N)C(=O)N[C@@H](CC(C)C)C(=O)O [Api137] ({Orn(α-tetramethylguanidino)}-NNRPVYIPRPRPPHPRL-OH) | none inhibited |  | ~ 77% |  |  | only a slight inhibition | 16 µg/mL (≈ 6.98 µM) | 16 µg/mL (≈ 6.98 µM) |
